2 molecules from patent US12685731B2, “Organic compounds” (INTRA-CELLULAR THERAPIES, INC., priority 2018, dated 2026) can be followed below.

Series [1] in a line: Measurement of parent and metabolite levels in mice (plasma and brain levels after single oral co-dosing). Format: in vivo. The conditions noted are these: for Cmax / Tmax / AUC / concentration at […] / concentration at 0.5 h / concentration at 1 h / concentration at 2 h / concentration at 4 h: mouse, single dose oral, co-dosed; for AUC: 0.25-4 hr sampling; for concentration at […]: 0.25 hr. The protocol:
The compound of Example 1 and the compound of Formula Q are co-dosed in mice (n=3), and the levels of the both compounds are studied. Procedures for the synthesis of the compound of Formula Q can be found in WO 2008/112280. […] The mean values for maximum concentration, time to maximum concentration, and Area Under the Curve (AUC) for both compounds is determined.

For a further series, the target named is serotonin transporter (Homo sapiens, UniProt P31645). The series can be described thus: Receptor binding studies, serotonin transporter.
Sequence of serotonin transporter (P31645 whole entry): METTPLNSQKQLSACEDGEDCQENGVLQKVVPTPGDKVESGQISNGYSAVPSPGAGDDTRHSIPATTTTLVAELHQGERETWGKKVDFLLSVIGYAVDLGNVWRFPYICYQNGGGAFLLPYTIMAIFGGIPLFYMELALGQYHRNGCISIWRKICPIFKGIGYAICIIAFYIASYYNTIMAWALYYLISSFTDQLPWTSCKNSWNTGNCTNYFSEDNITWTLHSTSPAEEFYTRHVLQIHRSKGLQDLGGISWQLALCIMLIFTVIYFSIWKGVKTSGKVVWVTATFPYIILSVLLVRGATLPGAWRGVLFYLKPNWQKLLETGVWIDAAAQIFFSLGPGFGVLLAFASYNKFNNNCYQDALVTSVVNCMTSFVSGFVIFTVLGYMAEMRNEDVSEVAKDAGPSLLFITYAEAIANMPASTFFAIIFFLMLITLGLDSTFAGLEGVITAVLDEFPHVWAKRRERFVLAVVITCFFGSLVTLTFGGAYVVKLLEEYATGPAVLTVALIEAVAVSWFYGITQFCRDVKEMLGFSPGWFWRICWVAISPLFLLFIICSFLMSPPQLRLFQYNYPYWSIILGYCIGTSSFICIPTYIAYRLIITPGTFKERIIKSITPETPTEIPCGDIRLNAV
The subject of series [2] is serotonin receptor (e.g., 5-HT2A). The series can be described thus: Receptor binding studies, serotonin receptor.
Series [3] relates to dopamine receptor (e.g., D2). The series can be described thus: Receptor binding studies, dopamine receptor.
Setting [4] is: mean n=3, brain, read-out: Brain level.
Setting [5] is: mean n=3, plasma, read-out: Plasma level.

Where two headings read alike, the source gives them in different places.

The Cmax is the highest concentration seen after dosing. What is called Tmax is the time at which the peak concentration occurs. Broadly, the AUC is concentration integrated over time. With `[2H]C1([2H])N(C)c2cccc3c2N([C@H]2CCN(CCCC(=O)c4ccc(F)cc4)C[C@@H]32)C1([2H])[2H]` [Example 1, 1-(4-fluorophenyl)-4-((6bR,10aS)-1,1,2,2-tetradeuterio-3-methyl-2,3,6b,7,10,10a-hexahydro-1H-pyrido[3′,4′:4,5]pyrrolo[1,2,3-de]quinoxalin-8(9H)-yl) butan-1-one p-toluenesulfonate], the “Metabolic clearance compared to the compound of Formula Q” value in series [1] (concluded from higher Cmax and AUC values) is “reduced metabolic clearance”. In series [1] (brain), the highest concentration (Cmax) was determined as 402 ng/g, the Tmax is 30 min and the AUC was 404 ng·h/mL. For the same molecule, in series [1] (setting [4]), the concentration at […] was 238 ng/g, the concentration at 0.5 h came to 402 ng/g, the concentration at 1 h is 39.4 ng/g and the concentration at 2 h is 67.7 ng/g. Moreover, the concentration at 4 h in series [1] (setting [4]) is 62.1 ng/g. Besides, in series [1] (setting [5]), the concentration at […] worked out at 30.4 ng/mL, the concentration at 0.5 h is 38.1 ng/mL, the concentration at 1 h amounted to 11.6 ng/mL and the concentration at 2 h came out at 31.4 ng/mL. Further, the concentration at 4 h in series [1] (setting [5]) turned out to be 16.8 ng/mL. Also, in series [1] (plasma), the Cmax was found to be 38.1 ng/mL, the Tmax is 30 min and the exposure (AUC) worked out at 94.5 ng·h/mL. Besides, the “Receptor binding profile compared to the compound of Formula Q” value at serotonin transporter is “substantially the same receptor binding profile”. For the same molecule, the “Receptor binding profile compared to the compound of Formula Q” value in series [2] was “substantially the same receptor binding profile”. The “Receptor binding profile compared to the compound of Formula Q” value in series [3] is on record as “substantially the same receptor binding profile”.
Take `CN1CCN2c3c(cccc31)[C@@H]1CN(CCCC(=O)c3ccc(F)cc3)CC[C@@H]12` [Formula Q, reference compound]: in series [1] (brain), the maximum concentration (Cmax) was determined as 384 ng/g, the Tmax was found to be 30 min and the area under the curve (AUC) came out at 387 ng·h/mL. In series [1] (setting [4]), the concentration at […] came to 228 ng/g, the concentration at 0.5 h came out at 384 ng/g, the concentration at 1 h came out at 37.9 ng/g and the concentration at 2 h amounted to 65.6 ng/g. Besides, the concentration at 4 h in series [1] (setting [4]) is 58.8 ng/g. Also, in series [1] (setting [5]), the concentration at […] is 28.2 ng/mL, the concentration at 0.5 h came out at 34.9 ng/mL, the concentration at 1 h came to 11 ng/mL and the concentration at 2 h amounted to 29.9 ng/mL. Further, the concentration at 4 h in series [1] (setting [5]) was found to be 16.3 ng/mL. Also, in series [1] (plasma), the Cmax was 34.9 ng/mL, the Tmax was 30 min and the AUC stood at 89.5 ng·h/mL.
